assay: Metabolic stability in liver microsomes with NADPH-generating system, LC-MS analysis; format: in vitro ADME; details: 15 minutes incubation, compound 5 μM, active microsomes 1 mg/ml
Procedure: Sub-cellular tissue preparations were made according to Gorrod et al. (Xenobiotica 5: 453-462, 1975) by centrifugal separation after mechanical homogenization of tissue. Liver tissue was rinsed in ice-cold 0.1 M Tris-HCl (pH 7.4) buffer to wash excess blood. Tissue was then blotted dry, weighed and chopped coarsely using surgical scissors. The tissue pieces were homogenized in 3 volumes of ice-cold 0.1 M phosphate buffer (pH 7.4).
Tissue homogenates were centrifuged at 9000×g for 20 minutes at 4° C. The resulting supernatant was stored at −80° C. and is designated ‘S9’.
The S9 fraction can be further centrifuged at 100.000×g for 60 minutes (4° C.). The resulting supernatant was carefully aspirated, aliquoted and designated ‘cytosol’. The pellet was re-suspended in 0.1 M phosphate buffer (pH 7.4) in a final volume of 1 ml per 0.5 g original tissue weight and designated ‘microsomes’.
All sub-cellular fractions were aliquoted, immediately frozen in liquid nitrogen and stored at −80° C. until use.
For the samples to be tested, the incubation mixture contained PBS (0.1M), compound (5 μM), microsomes (1 mg/ml) and a NADPH-generating system (0.8 mM glucose-6-phosphate, 0.8 mM magnesium chloride and 0.8 Units of glucose-6-phosphate dehydrogenase). Control samples contained the same material but the microsomes were replaced by heat inactivated (10 minutes at 95 degrees Celsius) microsomes. Recovery of the compounds in the control samples was always 100%.
The mixtures were preincubated for 5 minutes at 37 degrees Celsius. The reaction was started at time point zero (t=0) by addition of 0.8 mM NADP and the samples were incubated for 60 minutes (P60). The reaction was terminated by the addition of 2 volumes of DMSO. Then the samples were centrifuged for 10 minutes at 900×g and the supernatants were stored at room temperature for no longer as 24 hours before analysis. All incubations were performed in duplo. Analysis of the supernatants was performed with LC-MS analysis. Elution of the samples was performed on a Xterra MS C18 (50×4.6 mm, 5 μm, Waters, US). An Alliance 2790 (Supplier: Waters, US) HPLC system was used. Elution was with buffer A (25 mM ammoniumacetate (pH 5.2) in H2O/acetonitrile (95/5)), solvent B being acetonitrile and solvent C methanol at a flow rate of 2.4 ml/min. The gradient employed was increasing the organic phase concentration from 0% over 50% B and 50% C in 5 min up to 100% B in 1 minute in a linear fashion and organic phase concentration was kept stationary for an additional 1.5 minutes. Total injection volume of the samples was 25 μl.
A Quatro triple quadrupole mass spectrometer fitted with and ESP source was used as detector. The source and the desolvation temperature were set at 120 and 350° C. respectively and nitrogen was used as nebuliser and drying gas. Data were acquired in positive scan mode (single ion reaction). Cone voltage was set at 10 V and the dwell time was 1 second.
Metabolic stability was expressed as % metabolism of the compound after 15 or 60 minutes (equation given as example) of incubation in the presence of active microsomes (E(act))

% metabolised compound	Structure (SMILES)
4 (15″) %	O=C(NC[C@@H]1CCN(CCCO)C[C@H]1O)c1cc(Cl)c(Br)c2c1OCCCO2 [Co. No. 24]
10 (15″) %	O=C(NC[C@@H]1CCN(CCC2OCCO2)C[C@H]1O)c1cc(Cl)c(Cl)c2c1OCCCO2 [Co. No. 88]
26.5 (15″) %	O=C(NC[C@@H]1CCN(CCC2OCCO2)C[C@H]1O)c1cc(Cl)cc2c1OCCCO2 [WO-00/37461 Co. No. 143, reference compound]
5 (15″) %	O=C(NC[C@@H]1CCN(CCCO)C[C@H]1O)c1cc(Cl)cc2c1OCCCO2 [WO-00/37461 Co. No. 144, reference compound]

same assay, conditions: 60 minutes incubation, compound 5 μM, active microsomes 1 mg/ml

% metabolised compound	Structure (SMILES)
51 (60″) %	CCCCN1CC[C@@H](CNC(=O)c2cc(Cl)c(Br)c3c2OCCCO3)[C@H](O)C1 [Co. No. 22]
68 (60″) %	CCCCN1CC[C@@H](CNC(=O)c2cc(Cl)cc3c2OCCCO3)[C@H](O)C1 [WO-00/37461 Co. No. 119, reference compound]

— patent US7635706B2, “5HT4-antagonistic 4-(aminomethyl)-piperidine benzamides” (Janssen Pharmaceutica NV, priority 2003, dated 2009)
